“Also recorded” adds a separate entry of the source.
Columns and labels:
Format in all cases: in vivo, mouse
[1] = test system: NCI-H838 MTAP-deleted xenografts; assay: Efficacy of Compound A and Compound B in NCI-H838 NSCLC xenograft (Example 6); details: for TGI (%): Study Day 25; for Final TV (mean): initial TV 140
Description: (§1) The effect of Compound A and Compound B (HCl salt was used) as single-agent anti-tumor agents and in combination was assessed in the NCI-H838 human NSCLC tumor cell line, an endogenously MTAP-deleted cell line. Cells were expanded in RPMI with 10% fetal bovine serum. These cells were free of mycoplasma and authenticated by STR profiling. Ten million cells in log growth phase were resuspended in RPMI-1640 containing 50% Matrigel and implanted subcutaneously into the flank of each recipient female BALB/c nude mouse. The mice were be kept in laminar flow rooms at constant temperature and humidity with 3-5 mice in each cage. Animals were housed in polycarbonate cages maintained at a temperature of 23±3° C. and a relative humidity of 40% to 70%. The bedding material was soft wood, which was changed once per week. Water and diet were provided ad libitum.
(§2) Tumor Volume (TV) was calculated using the following formula: TV (mm^3)=(width×width×length)/2. No dose holidays were provided for during the study. Tumor growth inhibition (TGI) was calculated by [(TV controlfinal−TV treatedfinal)/(TV controlfinal−TV controlinitial)×100]. A TGI greater than 100% indicates tumor regressions. TV was analyzed for statistical significance utilizing GraphPad Prism version 9.1.0. Repeated Measures 2-Way ANOVA with Tukey's Multiple Comparisons was utilized, and P-values were presented from the Study Day 25 tumor measurement and were considered statistically significant if less than 0.05.
(§3) Mean tumor volume at dosing start was approximately 140 mm^3, with ten mice randomized to each treatment group, with the study consisting of eight treatment groups. Mice were dosed orally, twice per day (BID) with Vehicle, once per day (QD) with Compound A at 3 mg/kg, or BID with Compound B at 1, 10, or 30 mg/kg, or Compound A combined with Compound B at each dose level. The Vehicle was 0.5% 400 cps methylcellulose with 0.5% Tween-80 in sterile water.

[2] = test system: HCT-116 MTAP-deleted tumors; assay: Efficacy of Compound A and Compound B in HCT-116 MTAP-deleted xenografts (Example 5); details: for TGI (%) / Final TV (mean): Day 21; for Final TV (mean): initial TV 224
Description: (§4) The effect of Compound A and Compound B (HCl salt was used) as single-agent anti-tumor agents and in combination was assessed in the HCT-116 human colon tumor cell line, MTAP isogenic pair (MTAP proficient (WT) or MTAP-deleted). Cells were expanded in DMEM/F12 GlutaMAX (Fisher Scientific, Catalog Number 10-565-018) with 10% fetal bovine serum. These cells were free of mycoplasma and authenticated as HCT-116 by STR profiling. Two and a half million cells in log growth phase were resuspended in Hanks Balanced Salt Solution containing 50% Matrigel and implanted subcutaneously into the flank of each recipient female nu/nu mouse. Mice were housed in microisolator cages with corn cob bedding with additional enrichment consisting of sterile nesting material (Innovive) and Bio-huts (Bio-Serv). Water (Innovive) and diet (Teklad Global 19% Protein Extruded Diet 2919, Irradiated) were provided ad libitum. The environment was maintained on a 12-hour light cycle at approximately 68-72° F. and 40-60% relative humidity.
as §2, with “study and all mice were euthanized following the final dose on Day 21 (MTAP-deleted) or Day 15 (MTAP WT).” for “study.”, “final” for “Study Day 25”
(§5) Mean tumor volume at dosing start was approximately 224 mm^3, with seven mice randomized to each treatment group. In the HCT-116 MTAP-deleted tumor model, mice were dosed orally, twice per day (BID) with Vehicle, once per day (QD) with Compound A at 1 or 3 mg/kg, or BID with Compound B at 3, 10, or 30 mg/kg, or Compound A combined with Compound B at each dose level. In the HCT-116 WT tumor model, mice were dosed orally, with BID Vehicle, QD with Compound A at 3 mg/kg, or BID with Compound B at 10 or 30 mg/kg, or Compound A combined with Compound B. The Vehicle was 0.5% 400 cps methylcellulose with 0.5% Tween-80 in sterile water.

[3] = test system: LU99 MTAP-deleted xenografts; assay: Efficacy of Compound A and Compound B in LU99 NSCLC xenograft (Example 7); details: for TGI (%) / Final TV (mean): Study Day 21
Description: as §1, with “JCRB LU99” for “NCI-H838”
(§6) Tumor Volume (TV) was calculated using the following formula: TV (mm^3)=(width×width×length)/2. No dose holidays were provided for during the study. Tumor growth inhibition (TGI) was calculated by [(TV controlfinal−TV treatedfinal)/(TV controlfinal−TV controlinitial)×100]. A TGI greater than 100% indicates tumor regressions. TV was analyzed for statistical significance utilizing GraphPad Prism version 9.1.0. Repeated Measures 2-Way ANOVA with Tukey's Multiple Comparisons was utilized, and P-values were presented from the final tumor measurement on Study Day 21 and were considered statistically significant if less than 0.05.
as §3, with “141” for “140”

HCT-116 MTAP WT tumors = assay: Efficacy of Compound A and Compound B in HCT-116 MTAP WT xenografts (Example 5); details: for TGI (%) / Final TV (mean): Day 15; for Final TV (mean): initial TV 228
Description: as §4
as §6, with “study and all mice were euthanized following the final dose on Day 21 (MTAP-deleted) or Day 15 (MTAP WT).” for “study.”, “measurement” for “measurement on Study Day 21”
as §5

[4] = HCT-116 MTAP WT model, over the dose levels tested

In the case of `Cn1ncc(-c2ccc3c(=O)[nH]nc(CN)c3c2)c1-c1c(F)cc2ccccc2c1C#N` (atropisomer, axis not shown) [Compound B], the “TGI (%)” value ([1]; Compound B 1 mg/kg BID orally) is reported as 53%, the “Final TV (mean)” value ([1]; Compound B 1 mg/kg BID orally) is reported as 899 mm^3 and the “TGI (%)” value ([1]; Compound B 10 mg/kg BID orally) is reported as 56%. The “Final TV (mean)” value ([1]; Compound B 10 mg/kg BID orally) was 839 mm^3, the “TGI (%)” value ([1]; Compound B 30 mg/kg BID orally) was 67% and the “Final TV (mean)” value ([1]; Compound B 30 mg/kg BID orally) was 666 mm^3. For the same compound, the “TGI (%)” value ([2]; Compound B 3 mg/kg BID orally) was 29%, the “Final TV (mean)” value ([2]; Compound B 3 mg/kg BID orally) was 1015 mm^3 and the “TGI (%)” value ([2]; Compound B 10 mg/kg BID orally) was 49%. The “Final TV (mean)” value ([2]; Compound B 10 mg/kg BID orally) was 794 mm^3, the “TGI (%)” value ([2]; Compound B 30 mg/kg BID orally) was 83% and the “Final TV (mean)” value ([2]; Compound B 30 mg/kg BID orally) was 420 mm^3. The “TGI (%)” value ([3]; Compound B 1 mg/kg BID orally) was 23%, the “Final TV (mean)” value ([3]; Compound B 1 mg/kg BID orally, initial TV 142) was 1765 mm^3 and the “TGI (%)” value ([3]; Compound B 10 mg/kg BID orally) was 74%. For the same compound, the “Final TV (mean)” value ([3]; Compound B 10 mg/kg BID orally, initial TV 142) was 683 mm^3, the “TGI (%)” value ([3]; Compound B 30 mg/kg BID orally) was 90% and the “Final TV (mean)” value ([3]; Compound B 30 mg/kg BID orally, initial TV 141) was 353 mm^3. For the same compound, the “anti-tumor activity (in words)” value (HCT-116 MTAP WT tumors; Compound B 10 mg/kg BID) was “significantly enhanced tumor growth”, the “TGI (%)” value (HCT-116 MTAP WT tumors; Compound B 10 mg/kg BID orally) was −52% and the “Final TV (mean)” value (HCT-116 MTAP WT tumors; Compound B 10 mg/kg BID orally) was 1596 mm^3. For the same compound, the “TGI (%)” value (HCT-116 MTAP WT tumors; Compound B 30 mg/kg BID orally) was −27%, the “Final TV (mean)” value (HCT-116 MTAP WT tumors; Compound B 30 mg/kg BID orally) was 1372 mm^3 and the “anti-tumor activity (in words)” value (HCT-116 MTAP WT tumors; [4]) was “no single agent activity”.
`Nc1nc(=O)n(-c2ccccc2Cl)c2nc(C(F)(F)F)ccc12` [Compound A] was tested, and the “TGI (%)” value ([1]; Compound A 3 mg/kg QD orally) was 79%, the “Final TV (mean)” value ([1]; Compound A 3 mg/kg QD orally) was 478 mm^3 and the “anti-tumor activity (in words)” value ([1]; NCI-H838 model, over the dose levels tested) was “statistically significant anti-tumor activity”. The “TGI (%)” value ([2]; Compound A 1 mg/kg QD orally) was 64%, the “Final TV (mean)” value ([2]; Compound A 1 mg/kg QD orally) was 632 mm^3 and the “TGI (%)” value ([2]; Compound A 3 mg/kg QD orally) was 80%. The “Final TV (mean)” value ([2]; Compound A 3 mg/kg QD orally) was 450 mm^3, the “anti-tumor activity (in words)” value ([2]; HCT-116 MTAP-deleted model, over the dose levels tested) was “statistically significant anti-tumor activity” and the “TGI (%)” value ([3]; Compound A 3 mg/kg QD orally) was 43%. The “Final TV (mean)” value ([3]; Compound A 3 mg/kg QD orally, initial TV 142) was 1341 mm^3, the “anti-tumor activity (in words)” value ([3]; LU99 model, over the dose levels tested) was “statistically significant anti-tumor activity” and the “TGI (%)” value (HCT-116 MTAP WT tumors; Compound A 3 mg/kg QD orally) was −9%. The “Final TV (mean)” value (HCT-116 MTAP WT tumors; Compound A 3 mg/kg QD orally) was 1211 mm^3 and the “anti-tumor activity (in words)” value (HCT-116 MTAP WT tumors; [4]) was “no tumor growth inhibition; also recorded: no single agent activity”.

Source: patent publication US12115163B2, “Combination therapy comprising a MAT2A inhibitor and a type II PRMT inhibitor” (IDEAYA BIOSCIENCES, INC., priority 2021, dated 2024)
